Consider eleven compounds from patent US20170367338A1, “COMPOSITIONS AND METHODS FOR IMPROVING AGRONOMIC CHARACTERISTICS OF PLANTS” (MONSANTO TECHNOLOGY LLC, priority 2014, published 2017).

≈ marks a conversion by molar mass, not a printed value. Read-outs that look alike come from different tables or passages of the source.

Type in all cases: in vivo
Test [1] deals with Heterodera glycines (SCN). The experiment in a line: Seed treatment test of soybean cyst nematode on soybean. Conditions: Heterodera glycines, 672 h, read-out: percent cyst reduction relative to control blank treatment. The method, then: For a given concentration the chemical is dissolved in 500 ul of acetone and one gram of cucumber seed (RKN test) or soybean seed (SCN test) is added (e.g., 20 mg active ingredient in 500 ul acetone plus 1 gram of seed). The seed solutions are agitated until all seeds were thoroughly covered with the chemical solution. The acetone is then allowed to evaporate by air drying the seeds. The seeds are planted in 2-inch pots containing sandy soil and then the pots are inoculated with 1000 Meloidogyne incognita (RKN) or 1000 Heterodera glycines (SCN) eggs per pot three days after planting. Plants are rated for galling 14 days after egg inoculation for RKN or 28 days after egg inoculation for SCN.

The next test has as its system root knot nematode. Description: Pre-plant incorporated (PPI) greenhouse test of root knot nematode on cucumber plants. Conditions: 168 h, seven day pre-plant incorporated. From the text:
The PPI test examines the effect of pre-incorporation of compounds in soil and longer aging to simulate in furrow methods of nematicide application in the field. The PPI test exposes compounds to a higher volume of soil and drying which can result in more severe soil binding. Compounds are also aged for longer periods which can lead to more extensive biotic and abiotic degradation further limiting activity.
The chemically treated soil (sandy soil mix) for all treatment days (e.g., 7 days, 14 days, 21 days) treatments is potted into their appropriate pots. On the same day the 7 day treatment pots are seeded. One week later eggs are applied and 14 days after egg application the test is harvested. The 14 day treatments are planted 7 days after the first planting. The 14 day planting and 7 day inoculation happen on the same day. One week later the 14 day treatments are inoculated with eggs. These are harvested 14 days after the inoculation. The 21 day treatments are planted 14 days after the first planting. The 14 day inoculation and 21 day planting are done on the same day. One week later the 21 day plants are inoculated with eggs. The 7 day treatment is harvested the same day as the 21 day inoculation. Fourteen days after inoculation the 21 day plants are harvested.
For each compound a stock is prepared using 4 mg material in 4 ml of acetone. The soil is mixed by placing 80 ml of field soil and 320 ml of sand in a plastic bag and mixing well. The formulation for treatment is done by adding 2.13 ml (8 kg/ha rate), 1.06 ml (4 kg/ha rate) or 0.53 ml (2 kg/ha rate) to a vial and raising it with 10 ml in 0.05% X100. Soil is then treated by adding the entire 10 ml to the 400 ml of mix in the bag. The treated soil is immediately mixed well in the sealed bag to distribute the compound evenly. Approximately 95 ml is used to fill each 2-inch square pot up to the top with some soil compression and flattening. For each compound and for the control treatments 4 pots are filled. All pots are watered until moist but with no run-out through the bottom.
The PPI test simulates 8, 4 and 2 kg/ha rates incorporated 15 cm deep in the field and is equivalent to the 2, 1 and 0.5 kg/ha drench application rates in the standard 2-inch pot cucumber greenhouse assay.

In the next test the test system is C. elegans. The experiment in a line: Three day C. elegans well assay. Conditions: for EC50: Caenorhabditis elegans. How it is done: Various compounds were tested for nematicidal activity against C. elegans using contact assays in wells. The assays were performed as described below. The test compounds were solubilized in DMSO at 10 mg/ml to create 100× stock solutions. A dilution series was created by diluting the stock solution with DMSO. For each well assay 4 ul of the appropriate dilution is added to a well of a test plate. A 400 ul aliquot of bacterial stock (in M9 buffer with ampicillin and nystatin) are added to each well of the test plate. Worms are added and the test plate placed on a rotary shaker and held at 20° C. Worms are examined and scored at 4 hrs, 24 hrs, 48 hrs and 72 hours. L1 worms and L4 worms were used in the assay. L1 worms are prepared by plating eggs on a plate without a bacterial feeding layer. The eggs hatch and arrest at the L1 stage. This L1 stage population is then used to create a stock for the experiments. To create an L4 stage stock a small number of worms are taken from an overgrown and starved plate of worms and seeded on a plate with a bacterial feeder layer. A 25 ul aliquot of worms is added to each well in the assay.

Where [2] appears, read: 24 h, L1 larvae, one day of exposure, read-out: EC50 L1 1D.
Where [3] appears, read: 48 h, L1 larvae, two days of exposure, read-out: EC50 L1 2D.
Where [4] appears, read: 72 h, L1 larvae, three days of exposure, read-out: EC50 L1 3D.
Where [5] appears, read: 72 h, L4 larvae, three days, effects on the second generation larvae, read-out: EC50 L4 3D (F1).
Setting [6] is: 48 h, L4 larvae, two days of exposure, read-out: EC50 L4 2D.
Setting [7] is: L4 larvae, two days of exposure.
Where [8] appears, read: 24 h, L4 larvae, one day of exposure, read-out: EC50 L4 1D.

Take `CS/C(C)=N\OC(=O)N(C)SN(C)C(=O)O/N=C(\C)SC` [Thiodicarb, reference compound]: in test [1], the pest or weed control at 0.375 mg/g was 6% and the pest or weed control at 1.5 mg/g is -23%.
Consider `FC(F)(F)c1ccc(-c2noc(-c3cccs3)n2)cc1` [compound 5213], for which, in the test on root knot nematode (4 kg/ha, read-out: percent control (galling reduction), 4 kg/ha rate), the pest or weed control at 4000 g/ha was found to be 85%. For the same compound, in the test on root knot nematode (8 ka/ha, read-out: percent control (galling reduction), 8 ka/ha rate), the pest or weed control at 8000 g/ha stood at 98%.
In general, EC50 refers to the concentration that produces a half-maximal response. Regarding `Clc1cc(-c2noc(-c3cccs3)n2)ccc1Br` [compound 5820], the concentration for a half-maximal effect (EC50) in the test with C. elegans (setting [2]) turned out to be 0.4 µg/mL (≈ 1.17 µM); with C. elegans (setting [3]), 0.4 µg/mL (≈ 1.17 µM); in the test with C. elegans (setting [4]), 0.4 µg/mL (≈ 1.17 µM); with C. elegans (setting [5]), 6.3 µg/mL (≈ 18.4 µM). For the same compound, the “EC50 L4 1D” value in the test on C. elegans (L4 larvae, one day of exposure) was “no”.
As for `Clc1cc(-c2noc(-c3ccco3)n2)ccc1Br` [compound 5821], the 50% effective concentration (EC50) in the test with C. elegans (setting [2]), in the test on C. elegans (setting [3]), in the test on C. elegans (setting [4]) and with C. elegans (setting [5]) was 0.4 µg/mL (≈ 1.23 µM) each time. For the same compound, the “EC50 L4 1D” value in the test with C. elegans (L4 larvae, one day of exposure) is “no”.
Regarding `Cc1cc(Cl)ccc1-c1noc(-c2cccs2)n1` [compound 5822], the concentration for a half-maximal effect (EC50) in the test on C. elegans (setting [2]) worked out at 1.6 µg/mL (≈ 5.78 µM); with C. elegans (setting [3]) it was 0.4 µg/mL (≈ 1.45 µM); in the test on C. elegans (setting [6]), 1.6 µg/mL (≈ 5.78 µM); in the test on C. elegans (setting [4]), 0.4 µg/mL (≈ 1.45 µM); with C. elegans (setting [5]) it was 1.6 µg/mL (≈ 5.78 µM). For the same compound, the “EC50 L4 1D” value with C. elegans (L4 larvae, one day of exposure) is reported as “no”.
In the case of `Cc1cc(Br)ccc1-c1noc(-c2cccs2)n1` [compound 5824], the EC50 in the test with C. elegans (setting [2]) was determined as 1.6 µg/mL (≈ 4.98 µM); with C. elegans (setting [3]), 0.4 µg/mL (≈ 1.25 µM); in the test with C. elegans (setting [4]) it was 0.4 µg/mL (≈ 1.25 µM); in the test on C. elegans (setting [5]), 1.6 µg/mL (≈ 4.98 µM). For the same compound, in the test with C. elegans (L4 larvae, one day of exposure), the “EC50 L4 1D” value was “no”. In addition, in the test on C. elegans (setting [7]), the “EC50 L4 2D” value is “no”.
As to `Clc1ccccc1-c1cnc(-c2cccs2)o1` [compound 5826], the half-maximal effective concentration (EC50) in the test with C. elegans (setting [2]) is 6.3 µg/mL (≈ 24.1 µM); in the test on C. elegans (setting [8]) it was 6.3 µg/mL (≈ 24.1 µM); with C. elegans (setting [3]), 1.6 µg/mL (≈ 6.11 µM); in the test on C. elegans (setting [6]), 6.3 µg/mL (≈ 24.1 µM); in the test on C. elegans (setting [4]), 1.6 µg/mL (≈ 6.11 µM); with C. elegans (setting [5]) it was 6.3 µg/mL (≈ 24.1 µM).
As to `Brc1ccccc1-c1cnc(-c2cccs2)o1` [compound 5827], the 50% effective concentration (EC50) came to 6.3 µg/mL (≈ 20.6 µM) with C. elegans (setting [2]); 25 µg/mL (≈ 81.7 µM) with C. elegans (setting [8]); 1.6 µg/mL (≈ 5.23 µM) in the test with C. elegans (setting [3]); 6.3 µg/mL (≈ 20.6 µM) in the test on C. elegans (setting [6]); 1.6 µg/mL (≈ 5.23 µM) with C. elegans (setting [4]); 6.3 µg/mL (≈ 20.6 µM) in the test on C. elegans (setting [5]).
Turning to `Clc1ccccc1-c1cnc(-c2ccco2)o1` [compound 5828], the EC50 with C. elegans (setting [2]), in the test on C. elegans (setting [3]) and in the test with C. elegans (setting [4]) was 1.6 µg/mL (≈ 6.51 µM) each time. Further, the “EC50 L4 1D” value in the test with C. elegans (L4 larvae, one day of exposure) is “no”. Moreover, in the test with C. elegans (L4 larvae, three days of exposure), the “EC50 L4 3D” value is listed as “no”. Besides, the “EC50 L4 2D” value in the test on C. elegans (setting [7]) is “no”.
Turning to `Cc1cc(F)ccc1-c1noc(-c2cccs2)n1` [compound 5845], the 50% effective concentration (EC50) with C. elegans (setting [3]) came to 1.6 µg/mL (≈ 6.15 µM); in the test on C. elegans (setting [6]), 25 µg/mL (≈ 96 µM); with C. elegans (setting [4]), 0.4 µg/mL (≈ 1.54 µM); in the test on C. elegans (setting [5]) it was 25 µg/mL (≈ 96 µM). Further, in the test with C. elegans (L1 larvae, one day of exposure), the “EC50 L1 1D” value is on record as “no”. Further, the “EC50 L4 1D” value with C. elegans (L4 larvae, one day of exposure) is given as “no”.
On to `Cc1cc(F)ccc1-c1noc(-c2ccco2)n1` [compound 5846], for which the EC50 with C. elegans (setting [2]) was 1.6 µg/mL (≈ 6.55 µM); with C. elegans (setting [8]), 1.6 µg/mL (≈ 6.55 µM); in the test with C. elegans (setting [3]), 0.4 µg/mL (≈ 1.64 µM); with C. elegans (setting [6]), 1.6 µg/mL (≈ 6.55 µM); in the test on C. elegans (setting [4]), 0.4 µg/mL (≈ 1.64 µM); in the test on C. elegans (setting [5]) it was 1.6 µg/mL (≈ 6.55 µM).
